Results on 17 compounds are retold here after ChEMBL document CHEMBL5291721, “A preclinical secondary pharmacology resource illuminates target-adverse drug reaction associations of marketed drugs” (Nat Commun, 2023).

Among the targets are D(1A) dopamine receptor (Homo sapiens, UniProt P21728); Substance-P receptor (Homo sapiens, UniProt P25103); Estrogen receptor beta (Homo sapiens, UniProt Q92731).
The target of experiment [1] is T1, Type-2 angiotensin II receptor (Homo sapiens, UniProt P50052).
T1 sequence (P50052 whole entry): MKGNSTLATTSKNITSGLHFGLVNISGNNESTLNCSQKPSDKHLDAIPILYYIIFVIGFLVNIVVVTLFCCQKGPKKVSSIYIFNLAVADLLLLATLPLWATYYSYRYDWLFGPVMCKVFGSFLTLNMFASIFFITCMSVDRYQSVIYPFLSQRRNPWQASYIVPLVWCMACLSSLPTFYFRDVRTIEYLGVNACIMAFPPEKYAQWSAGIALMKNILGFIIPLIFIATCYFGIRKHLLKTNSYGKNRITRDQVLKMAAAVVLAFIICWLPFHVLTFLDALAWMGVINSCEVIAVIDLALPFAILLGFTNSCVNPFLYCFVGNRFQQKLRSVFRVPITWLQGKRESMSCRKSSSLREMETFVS
In kind it is functional.

The target in experiment [2] is T2, Histamine H1 receptor (Homo sapiens, UniProt P35367). The class given is functional, cell-based.
T2 sequence (P35367 whole entry): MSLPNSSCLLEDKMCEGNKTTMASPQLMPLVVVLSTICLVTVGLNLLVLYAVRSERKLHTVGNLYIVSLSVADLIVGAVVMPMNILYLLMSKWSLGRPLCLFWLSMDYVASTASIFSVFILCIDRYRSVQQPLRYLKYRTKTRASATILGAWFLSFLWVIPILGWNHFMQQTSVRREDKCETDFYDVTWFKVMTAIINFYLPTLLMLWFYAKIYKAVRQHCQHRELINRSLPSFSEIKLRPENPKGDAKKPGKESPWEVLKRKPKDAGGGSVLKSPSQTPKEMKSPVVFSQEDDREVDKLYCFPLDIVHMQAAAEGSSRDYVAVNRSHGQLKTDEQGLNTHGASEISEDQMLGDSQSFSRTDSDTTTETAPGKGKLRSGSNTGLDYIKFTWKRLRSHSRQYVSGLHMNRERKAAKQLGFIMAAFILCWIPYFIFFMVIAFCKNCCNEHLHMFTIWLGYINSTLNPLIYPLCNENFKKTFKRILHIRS
Experiment [3] addresses T3, Peroxisome proliferator-activated receptor gamma (Homo sapiens, UniProt P37231).
T3 sequence (P37231 whole entry): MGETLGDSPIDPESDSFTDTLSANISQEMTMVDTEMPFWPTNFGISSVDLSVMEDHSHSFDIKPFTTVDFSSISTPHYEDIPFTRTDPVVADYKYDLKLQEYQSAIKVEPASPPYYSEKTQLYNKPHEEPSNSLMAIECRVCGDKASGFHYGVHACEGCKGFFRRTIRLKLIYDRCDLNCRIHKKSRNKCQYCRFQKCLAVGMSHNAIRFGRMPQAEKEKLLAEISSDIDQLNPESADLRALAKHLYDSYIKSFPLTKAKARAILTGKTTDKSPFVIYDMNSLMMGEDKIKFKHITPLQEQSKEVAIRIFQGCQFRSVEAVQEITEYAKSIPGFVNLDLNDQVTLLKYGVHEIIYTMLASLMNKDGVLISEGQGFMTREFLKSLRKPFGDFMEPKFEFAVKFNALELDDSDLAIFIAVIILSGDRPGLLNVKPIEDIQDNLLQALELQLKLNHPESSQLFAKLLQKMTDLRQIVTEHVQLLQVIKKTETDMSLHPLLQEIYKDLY
In kind it is functional.

Experiment [4] has as its target T2, Histamine H1 receptor. In kind it is functional, cell-based. The source holds these as a separate data set.
Experiment [5] deals with 5-hydroxytryptamine receptor 6 (Homo sapiens, UniProt P50406).
5-hydroxytryptamine receptor 6, sequence (P50406 whole entry): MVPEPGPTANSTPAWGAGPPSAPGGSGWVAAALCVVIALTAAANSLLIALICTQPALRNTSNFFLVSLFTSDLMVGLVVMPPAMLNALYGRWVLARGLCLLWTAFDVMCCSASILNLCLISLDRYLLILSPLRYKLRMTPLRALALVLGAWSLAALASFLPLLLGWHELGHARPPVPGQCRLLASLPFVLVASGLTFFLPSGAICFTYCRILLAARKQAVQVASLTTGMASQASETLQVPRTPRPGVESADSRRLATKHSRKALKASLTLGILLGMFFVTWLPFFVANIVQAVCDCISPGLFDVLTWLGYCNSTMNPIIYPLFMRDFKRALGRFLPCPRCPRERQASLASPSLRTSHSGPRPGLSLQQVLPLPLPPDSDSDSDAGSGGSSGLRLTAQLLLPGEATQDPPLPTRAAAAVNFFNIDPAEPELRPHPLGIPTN
The next experiment concerns the target Cannabinoid receptor 1 (Homo sapiens, UniProt P21554). The class given is functional.
Experiment [6] deals with T4, Muscarinic acetylcholine receptor M4 (Homo sapiens, UniProt P08173).
T4 sequence (P08173 whole entry): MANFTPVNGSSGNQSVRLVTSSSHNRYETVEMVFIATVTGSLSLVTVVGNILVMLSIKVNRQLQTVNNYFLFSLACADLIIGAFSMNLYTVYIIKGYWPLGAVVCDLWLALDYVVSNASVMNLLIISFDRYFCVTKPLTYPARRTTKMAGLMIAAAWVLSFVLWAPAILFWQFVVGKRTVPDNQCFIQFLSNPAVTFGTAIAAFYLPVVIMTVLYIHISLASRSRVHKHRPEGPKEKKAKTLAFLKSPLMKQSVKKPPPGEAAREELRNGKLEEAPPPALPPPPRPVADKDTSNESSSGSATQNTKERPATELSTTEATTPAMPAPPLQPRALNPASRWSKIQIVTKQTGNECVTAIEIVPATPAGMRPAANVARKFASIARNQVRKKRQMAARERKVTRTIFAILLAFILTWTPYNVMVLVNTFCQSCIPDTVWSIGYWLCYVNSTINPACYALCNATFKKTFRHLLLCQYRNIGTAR

For experiment [7], the target named is T5, Alpha-1A adrenergic receptor (Homo sapiens, UniProt P35348).
T5 sequence (P35348 whole entry): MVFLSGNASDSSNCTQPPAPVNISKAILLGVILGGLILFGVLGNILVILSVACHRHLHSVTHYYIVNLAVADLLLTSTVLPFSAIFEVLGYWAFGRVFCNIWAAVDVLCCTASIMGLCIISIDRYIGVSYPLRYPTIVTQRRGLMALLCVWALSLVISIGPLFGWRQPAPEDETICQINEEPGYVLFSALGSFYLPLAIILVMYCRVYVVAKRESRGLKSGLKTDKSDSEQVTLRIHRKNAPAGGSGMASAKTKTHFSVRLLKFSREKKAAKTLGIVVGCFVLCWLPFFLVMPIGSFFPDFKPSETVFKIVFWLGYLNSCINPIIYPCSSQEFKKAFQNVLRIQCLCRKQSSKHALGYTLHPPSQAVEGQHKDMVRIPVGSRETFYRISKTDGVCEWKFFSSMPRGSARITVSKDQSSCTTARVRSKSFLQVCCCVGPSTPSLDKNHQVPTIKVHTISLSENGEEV

Experiment [8] deals with T6, Gastric inhibitory polypeptide receptor (Homo sapiens, UniProt P48546).
T6 sequence (P48546 whole entry): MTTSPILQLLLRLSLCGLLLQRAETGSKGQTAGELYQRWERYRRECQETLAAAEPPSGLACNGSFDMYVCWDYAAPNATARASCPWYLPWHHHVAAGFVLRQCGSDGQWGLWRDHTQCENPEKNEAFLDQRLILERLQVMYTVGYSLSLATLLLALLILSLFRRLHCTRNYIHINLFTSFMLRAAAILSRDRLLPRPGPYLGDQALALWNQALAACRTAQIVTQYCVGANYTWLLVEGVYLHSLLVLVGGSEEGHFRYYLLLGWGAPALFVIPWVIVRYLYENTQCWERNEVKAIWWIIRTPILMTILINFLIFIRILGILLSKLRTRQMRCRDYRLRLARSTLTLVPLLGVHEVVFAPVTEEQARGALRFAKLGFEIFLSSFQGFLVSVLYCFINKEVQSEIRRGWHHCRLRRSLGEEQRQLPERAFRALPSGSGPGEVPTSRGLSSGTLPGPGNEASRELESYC

Usually AC50 stands for the concentration giving half of the maximal activity seen.
Also: assay procedure not described here.

Estrogen receptor beta, sequence (Q92731 whole entry): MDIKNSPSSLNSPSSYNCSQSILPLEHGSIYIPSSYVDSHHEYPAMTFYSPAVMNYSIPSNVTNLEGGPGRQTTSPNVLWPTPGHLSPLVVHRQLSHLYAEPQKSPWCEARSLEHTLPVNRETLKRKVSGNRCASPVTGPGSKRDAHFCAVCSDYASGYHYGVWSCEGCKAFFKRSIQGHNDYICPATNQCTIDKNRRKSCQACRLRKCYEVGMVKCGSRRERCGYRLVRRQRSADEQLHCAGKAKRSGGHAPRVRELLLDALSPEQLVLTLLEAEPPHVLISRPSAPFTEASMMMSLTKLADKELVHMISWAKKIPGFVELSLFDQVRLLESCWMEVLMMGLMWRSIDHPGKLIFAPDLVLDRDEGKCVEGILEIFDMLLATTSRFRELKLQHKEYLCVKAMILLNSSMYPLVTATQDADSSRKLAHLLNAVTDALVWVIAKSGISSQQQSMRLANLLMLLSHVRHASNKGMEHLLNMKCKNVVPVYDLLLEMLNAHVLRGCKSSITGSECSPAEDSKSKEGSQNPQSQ
Substance-P receptor, sequence (P25103 whole entry): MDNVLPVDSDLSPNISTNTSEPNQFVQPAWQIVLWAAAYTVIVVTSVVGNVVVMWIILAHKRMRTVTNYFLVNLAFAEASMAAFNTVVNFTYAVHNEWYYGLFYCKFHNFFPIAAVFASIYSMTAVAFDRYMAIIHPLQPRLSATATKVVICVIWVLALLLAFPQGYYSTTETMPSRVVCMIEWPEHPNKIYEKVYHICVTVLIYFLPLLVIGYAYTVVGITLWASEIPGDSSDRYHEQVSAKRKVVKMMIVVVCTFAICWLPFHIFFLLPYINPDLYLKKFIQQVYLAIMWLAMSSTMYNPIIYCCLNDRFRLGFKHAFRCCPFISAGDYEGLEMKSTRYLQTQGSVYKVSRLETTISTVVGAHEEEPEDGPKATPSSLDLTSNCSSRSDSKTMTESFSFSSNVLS
Cannabinoid receptor 1, sequence (P21554 whole entry): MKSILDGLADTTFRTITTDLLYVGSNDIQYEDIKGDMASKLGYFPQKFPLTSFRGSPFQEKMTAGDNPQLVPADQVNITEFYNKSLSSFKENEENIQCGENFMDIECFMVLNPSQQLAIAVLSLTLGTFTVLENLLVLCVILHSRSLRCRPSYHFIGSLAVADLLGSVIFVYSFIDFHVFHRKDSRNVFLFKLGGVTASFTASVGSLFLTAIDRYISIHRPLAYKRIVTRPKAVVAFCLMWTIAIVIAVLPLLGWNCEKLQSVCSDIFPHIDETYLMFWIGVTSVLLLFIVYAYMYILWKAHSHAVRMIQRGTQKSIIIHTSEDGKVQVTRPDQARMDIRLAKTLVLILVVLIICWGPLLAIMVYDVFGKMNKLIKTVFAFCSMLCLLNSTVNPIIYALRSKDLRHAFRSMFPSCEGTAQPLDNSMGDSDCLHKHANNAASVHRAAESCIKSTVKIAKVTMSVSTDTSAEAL
D(1A) dopamine receptor, sequence (P21728 whole entry): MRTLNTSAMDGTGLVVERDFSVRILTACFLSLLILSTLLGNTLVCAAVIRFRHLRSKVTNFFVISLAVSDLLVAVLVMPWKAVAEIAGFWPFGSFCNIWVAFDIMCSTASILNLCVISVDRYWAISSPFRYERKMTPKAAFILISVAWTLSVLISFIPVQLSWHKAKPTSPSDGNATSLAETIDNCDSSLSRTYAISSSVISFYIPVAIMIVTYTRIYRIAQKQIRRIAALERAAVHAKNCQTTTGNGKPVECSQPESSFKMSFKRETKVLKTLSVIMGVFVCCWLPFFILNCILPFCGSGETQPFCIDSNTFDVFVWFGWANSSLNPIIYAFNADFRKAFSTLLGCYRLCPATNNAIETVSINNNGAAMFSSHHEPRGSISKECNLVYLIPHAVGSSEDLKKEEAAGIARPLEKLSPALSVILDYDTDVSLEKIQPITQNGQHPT

In [1], `CN(C)Cc1nnc2n1-c1ccc(Cl)cc1C(c1ccccc1)=NC2` [ADINAZOLAM] came in with an AC50 above 100 µM.

In the case of `CN(C)C/C=C/C(=O)Nc1cc2c(Nc3ccc(F)c(Cl)c3)ncnc2cc1O[C@H]1CCOC1` [AFATINIB], the half-maximal activity concentration (AC50) (at Histamine H1 receptor [2]; in experiment [3]; on Histamine H1 receptor [4]) was above 30 µM each time.

`O=C(/C=C/c1cccc(S(=O)(=O)Nc2ccccc2)c1)NO` [BELINOSTAT]: the AC50 on D(1A) dopamine receptor was above 30 µM; on Substance-P receptor, above 10 µM; in experiment [5], 2.47 µM; at Cannabinoid receptor 1, above 10 µM; in experiment [6], above 10 µM; in experiment [7], above 30 µM.

For the compound `CC(C)(Oc1ccc(CCNC(=O)c2ccc(Cl)cc2)cc1)C(=O)O` [BEZAFIBRATE], the half-maximal activity concentration (AC50) in experiment [3] was above 30 µM.

For `CC(O)(CS(=O)(=O)c1ccc(F)cc1)C(=O)Nc1ccc(C#N)c(C(F)(F)F)c1` (centres undefined) [BICALUTAMIDE], the half-maximal activity concentration (AC50) at Estrogen receptor beta was above 30 µM; in experiment [8] it was above 30 µM; on Substance-P receptor, above 10 µM; in [5], above 10 µM; at Cannabinoid receptor 1, above 10 µM.

Regarding `O=C(O)COCCN1CCN(C(c2ccccc2)c2ccc(Cl)cc2)CC1` (centres undefined) [CETIRIZINE], the figures for the AC50 (on Estrogen receptor beta; in experiment [8]; at Substance-P receptor) were above 30 µM, above 30 µM and above 10 µM, respectively.

Take `NC[C@H]1CC[C@H](C(=O)Oc2ccc(CCC(=O)O)cc2)CC1` [CETRAXATE]: the concentration at half-maximal activity (AC50) (on D(1A) dopamine receptor; in experiment [7]) was above 30 µM each time.

For the compound `C[C@@H]1C[C@H]2[C@@H]3C[C@H](F)C4=CC(=O)C=C[C@]4(C)[C@@]3(F)[C@@H](O)C[C@]2(C)[C@@]1(OC(=O)c1ccco1)C(=O)SCF` [FLUTICASONE FUROATE], the half-maximal activity concentration (AC50) (in experiment [5]; on Cannabinoid receptor 1; in [6]) was above 10 µM each time.

On to `CN(C)CCCN1c2ccccc2CCc2ccccc21` [IMIPRAMINE], for which the AC50 at Estrogen receptor beta was above 30 µM; in experiment [8], above 30 µM; at Substance-P receptor it was above 10 µM; in experiment [5] it was 0.313 µM; on Cannabinoid receptor 1, above 10 µM; in experiment [1], above 100 µM. The compound also came in with an AC50 in [6] of 1.07 µM.

With `CN(Cc1cnc2nc(N)nc(N)c2n1)c1ccc(C(=O)N[C@@H](CCC(=O)O)C(=O)O)cc1` [METHOTREXATE], the AC50 (at Estrogen receptor beta; in experiment [8]) was above 30 µM throughout.

Compound `O=C(O)c1cccnc1Nc1cccc(C(F)(F)F)c1` [NIFLUMIC ACID] yielded a concentration at half-maximal activity (AC50) in [1] above 100 µM.

Take `OC[C@H]1O[C@@H](n2cnc3c2NC=NC[C@H]3O)C[C@@H]1O` [PENTOSTATIN]: the AC50 (on Histamine H1 receptor [2]; in [3]; on Histamine H1 receptor [4]) was above 30 µM throughout.

As for `CC(C)c1cccc(C(C)C)c1O` [PROPOFOL], the AC50 in experiment [3] was above 30 µM.

Regarding `CN[C@@H](C)[C@@H](O)c1ccccc1` [PSEUDOEPHEDRINE], the values for the half-maximal activity concentration (AC50) (on Estrogen receptor beta; in [8]; on Substance-P receptor) were above 30 µM, above 30 µM and above 10 µM, respectively.

In the case of `O=C1OC(OC(=O)c2cccnc2Nc2cccc(C(F)(F)F)c2)c2ccccc21` (centres undefined) [TALNIFLUMATE], the AC50 on Histamine H1 receptor [2] and at Histamine H1 receptor [4] was above 30 µM in each case.

On to `O=S1(=O)CCN(CN2CCS(=O)(=O)NC2)CN1` [TAUROLIDINE], for which the AC50 (on Histamine H1 receptor [2]; at D(1A) dopamine receptor; at Histamine H1 receptor [4]; in experiment [7]) was above 30 µM each time.

Regarding `COc1ccc2c(C(=S)N(C)CC(=O)O)cccc2c1C(F)(F)F` [TOLRESTAT], the AC50 (at D(1A) dopamine receptor; in [7]) was above 30 µM each time.
